Data published in patent publication US20130195956A1, “Transdermal Hormone Delivery” (Agile Therapeutics, Inc., priority 2012, published 2013).
“And” between values parts separate entries of the source, which are not always exact repeats. Equal values may be shown once.

Key:
[1] = 7 day in vitro skin permeation, Franz diffusion cells, hairless rat abdominal skin; details: for average cumulative amount permeated at the end of 7 days: donor: saturated solution in PEG-400, FIG. 6
Description: Skin was isolated from hairless rats (male, 8-10 weeks old and 350-400 g in weight) that were obtained from Charles River (Wilmington, Mass., USA). All the animals were allowed to acclimate for at least 1 week prior to their use in any experiment. […] Hairless rats were euthanized by carbon dioxide asphyxiation prior to the permeation experiment and abdominal skin was carefully excised using a pair of scissors and forceps. The underlying subcutaneous fat was removed from the excised skin and the abdominal skin thus obtained (˜1 mm thick) was used for the permeation experiments.
The 7 day permeation studies were performed using in vitro Franz diffusion cells (PermeGear, Inc., Hellertown, Pa., USA) having an effective diffusion surface area of 0.64 cm^2 (n≧3). […] These served as corresponding donor solutions. The receptor phase consisted of PEG 400 having gentamycin sulfate (80 mg/L). Gentamycin sulfate was added to the receptor phase to prevent microbial growth during the 7 day study. During the entire study, the receptor phase was maintained at 37° C. with constant stirring at 600 rpm. Freshly excised and cleaned hairless rat abdominal skin was obtained on the day of the experiment. This isolated skin was placed in between the donor and the receptor compartments and the entire set up was then secured in place using a clamp. Donor solution (0.5 ml) was then loaded into the donor cells using a pipette and the top was covered using parafilm and a silver foil. […] The only difference was that instead of using the saturated desogestrel solution as donor, desogestrel containing patches were used. Transdermal patches, large enough to cover the receptor compartment top, were cut out of the cast sheets, the release liner was removed and the patches were placed on the skin such that the adhesive side of the patch was facing the stratum corneum side of the skin. The donor cell was then placed and the entire set up was secured using a clamp. All samples obtained were analyzed using HPLC.
Analysis of the amount of drug in the samples was performed using a chromatographic method described in the literature with few modifications. […] Phenomenex RP C6 Luna 5μ column (Phenomenex, Torrance, Calif.) set at 35° C. was employed for gradient elution method. The mobile phase consisted of methanol and water. The gradient method was initiated with the use of a 70:30 (methanol:water) solution, followed by a change of the mobile phase composition to 100% methanol over the next 7 minutes. This methanol:water (100:0) composition was maintained till the 10th minute and then the mobile phase composition was changed again to a composition of 70:30 (methanol:water) by the 12th min. The run time of each injection was 15 minutes and the injection volume was 100 μl. The flow rate of the mobile phase throughout the run was 1.5 ml/min. […] The standard curve was linear over the range of 0.5-100 μg.
Student t-test and analysis of variance (ANOVA) were used to determine statistically significant differences. The p-value used in this study was 0.05.

[2] = cited from earlier work
[3] = Slide and patch crystallization studies for saturation solubility in adhesives and additives; assay type: physicochemical
Experimental: Drug in adhesive transdermal patches were prepared as follows. Predetermined amounts of drug, adhesive, ethyl acetate and/or additives (copovidone/mineral oil) were weighed into a glass container with lid and sealed using a parafilm to minimize loss of organic solvents. The formulation was stirred for 2 hours using a magnetic stirrer to form a homogenous mixture. The mixture was then cast on a release liner (3 mil fluoropolymer coated polyester film, Scotchpak™ 9744 from 3M) using a Gardner film casting knife (BYK-AG-4300 series, Columbia, Md., USA) and the cast sheet was dried in an oven at 60° C. for 17 minutes. Thereafter, the entire sheet was laminated using a backing membrane (2 mil polyester with an ethylene vinyl acetate copolymer, Scotchpak™ 9732 from 3M), which was placed on the cast film using a roller, ensuring no air pockets were formed. […]
The three different adhesives that were investigated for the preparation of desogestrel transdermal patches were two acrylate adhesives, Duro-Tak 87-4098 and Duro-Tak 87-202A, and one PIB adhesive, Duro-Tak 87-608A. […] The saturation solubility of desogestrel in these adhesives was determined using the slide method discussed earlier as well as crystallization studies on complete patches. […]

[4] = Experimental: Sheets were cast with the blend shown in Table 1 and dried for 17 minutes at 60 degrees Centigrade. Drying was followed by lamination to a polyester backing membrane and circular cutting of individual patches. The dry formulation of the patches is shown in the second column of Table 1.
[5] = Skin permeation of LNG from LNG/EE patches with four enhancers, Franz diffusion cells, human skin compared with rat skin; assay type: in vitro ADME; details: patches of Example 1 with four skin permeation enhancers; FIGS. 1-4
Experimental: A skin permeation experiment for the delivery of LNG from the patches prepared in Example 1 was performed (n=3). Three separate patches were cut to appropriate size such that they would cover the top of the receptor compartment of a Franz skin diffusion cell (exposed surface area of 0.64 cm^2). Hairless rat skin was freshly excised before the permeation experiment. PBS (0.1×) having 80 mg/L gentamycin sulfate and 0.5% Volpo was used as the receptor buffer (pH 7.2). Samples (0.5 ml) were taken at predetermined time points (3 hr, 6 hr, 12 hr, 24 hr, 2nd, 3rd, 4th, 5th, 6th and 7th day) and were analyzed for LNG levels using High Pressure Liquid Chromatography (HPLC).
The average flux (FIG. 1) and the cumulative amount (FIG. 2) of LNG that permeated across the hairless rat skin, during a period of four days, were determined and are shown below. In addition, patches manufactured using production equipment under the same processes and containing exactly the same amounts and ingredients as the pilot patches mentioned in Example 1 were used for comparison.
The above studies were performed using rat skin, which, for many drugs, is known to have similar permeation characteristics as human skin. […]

[6] = general statement in description

C#C[C@]1(O)CC[C@H]2[C@@H]3CCC4=CCCC[C@@H]4[C@H]3C(=C)C[C@@]21CC [desogestrel]
average cumulative amount permeated at the end of 7 days ([1]; hairless rat skin): 389.4±6.2 μg/sq.cm | skin permeation relative to ethinyl estradiol [1, 6]: higher | skin permeation relative to levonorgestrel [1, 6]: approximately ten-fold higher | average cumulative amount and flux from saturated PEG solution compared with optimized patches ([1]; p<0.05, hairless rat skin): significantly higher | average flux and cumulative amount compared with levonorgestrel ([1]; saturated PEG-400 solutions, p<0.05, FIGS. 5 and 6): significantly higher | logP [2]: 4 | saturation solubility in PIB adhesive (Duro-Tak 87-608A) ([3]; slides and patches): 3-4 % w/w | saturation solubility in copovidone (Plasdone S-630) ([3]; slides, drug:copovidone w/w ratios, up to 6 months): 70-80 % w/w and 70 % w/w

C#C[C@]1(O)CC[C@H]2[C@@H]3CCc4cc(O)ccc4[C@H]3CC[C@@]21C [ethinyl estradiol]
saturation of the patch with the hormone [4]: 22%

C#C[C@]1(O)CC[C@H]2[C@@H]3CCC4=CC(=O)CC[C@@H]4[C@H]3CC[C@@]21CC [levonorgestrel]
average cumulative amount permeated at the end of 7 days ([1]; hairless rat skin): 1.8±0.1 μg/sq.cm | logP [2]: 3.8 | permeation through rat skin compared with permeation through human skin [5]: very similar
